From US20130217615A1, “COMBINATION TREATMENT OF MAJOR DEPRESSIVE DISORDER” (SHIRE LLC, priority 2010, published 2013)
Entries after “also recorded” stand apart in the source; their conditions may differ.

Columns and labels:
[1] = Same study, double-blind augmentation phase: safety (TEAEs, C-SSRS, vital signs, ECG, weight/BMI, laboratory); assay type: in vivo, human
Text: Adverse events (AEs) were collected during the study and coded using the Medical Dictionary for Regulatory Activities, Version 11.1. Treatment-emergent AEs (TEAEs) were defined as AEs that started or deteriorated on or after the date of the first dose of study drug during the double-blind treatment phase and no later than 3 days following the last dose of study drug. The incidence of TEAEs of special interest, including psychiatric (psychosis/mania, suicide, aggression, or other) and nonpsychiatric (weight, clinical laboratory [liver enzymes], vital signs, and sexual dysfunction) was also assessed. Vital signs (sitting SBP and DBP, pulse, and sitting respiratory rate), and Columbia-Suicide Severity Rating Scale (C-SSRS; Posner K, Brent D, Lucas C, et al.) a semistructured interview assessing the occurrence, severity, and frequency of suicide-related thoughts and behaviors) were measured at screening and all study visits. Laboratory assessments were conducted at screening, week 8, week 11, and study endpoint; physical examinations were conducted at screening, week 8, and study endpoint.
Safety analyses during double-blind treatment were performed on the randomized safety analysis set (all participants who took dose of randomized augmentation treatment and had safety assessment after treatment initiation). AEs, vital signs, weight and body mass index (BMI), electrocardiograms (ECG) findings, laboratory results, and C-SSRS results were descriptively summarized.

[2] = system: major depressive disorder (MDD); assay: Multicenter, randomized, double-blind, placebo-controlled study of LDX (Vyvanse) as augmentation to escitalopram: efficacy (MADRS, HAM-D17, QIDS-SR, CGI); assay type: in vivo, human; settings: for HAM-D17 change in total score, LS mean change (90% CI): week 8 to 14
Protocol: In this investigational 14-week, double-blind, randomized, placebo-controlled study (n=246), Vyvanse or placebo was administered orally as an adjunctive therapy to adults between the ages of 18 and 55, who experienced residual depressive symptoms following treatment with 20 mg/day escitalopram/LEXAPRO® (prospective 8-week period). Residual depressive symptoms were defined as 17—Item Hamilton Rating Scale for Depression (HAM-D 17) score at the end of this prospective phase (n=177). In the double blind 6-week period, those with residual depressive symptoms were randomized to receive escitalopram plus either placebo or Vyvanse (dose range of 20 to 50 mg per day) on a 1:1 basis.
The primary study endpoint was the mean change in the total MADRS score in non-remitters after 6 weeks of blinded treatment. Non-remitters were defined as having a total Montgomery-Asberg Depression Rating Scale (MADRS) score>10 at randomization, following 8 weeks of escitalopram treatment (n=129). The key secondary outcome was the Sheehan Disability Scale (SDS). Both the MADRS and SDS are well-validated and widely used assessments in MDD research; the MADRS provides evidence of symptomatic improvement while the SDS reflects the functional impact of the symptomatic improvement. The significance level was prospectively set at 10%.
This was a multicenter, randomized, double-blind, parallel-group, placebo-controlled study in participants with major depressive disorder (MDD) conducted at 15 sites in the United States from July 2009 to August 2010. The study had 4 phases: screening and washout (if necessary), 8 weeks of open-label escitalopram oxalate, 6 weeks of double-blind LDX treatment as augmentation therapy to escitalopram, and a safety follow-up.
Eligible participants were adults (18-55 y) with a primary diagnosis of nonpsychotic MDD according to the Structured Clinical Interview for the Diagnostic and Statistical Manual of Mental Disorders, Fourth Edition—Text Revision™ disorders—Axis I (SCID-I) (American Psychiatric Association (Diagnostic and Statistical Manual of Mental Disorders, Fourth Edition Text Revision, Washington D.C., American Psychiatric Association, 2000). Diagnosis was confirmed using Module A of the Mini-International Psychiatric Interview (MINI). Participants not receiving antidepressants at screening were required to have a baseline Hamilton Rating Scale for Depression-17 items (HAM-D17) score 22; those receiving antidepressants at screening had to have a HAM-D17 score 0 and not to have achieved remission based on investigator opinion following at least 6 weeks of treatment. Women of childbearing age were required to be nonpregnant/nonlactating and on adequate contraception. Permitted concomitant therapies included hormonal therapy, thyroid medication, […], bronchodilator inhalers, nonsedating antihistamines, antibiotics, and over the counter medications not affecting blood pressure (BP), heart rate, or the central nervous system.
After screening/washout, participants underwent 8 weeks of open-label escitalopram monotherapy (10 mg/d at week 1; 20 mg/d thereafter). At week 8 (the augmentation baseline), those with a tolerable safety profile and residual MDD symptoms, defined as a HAM-D17 score were randomized 1:1 to receive LDX or placebo in a 6-week double-blind phase. Participants were stratified by baseline remission status (escitalopram remitters: Montgomery-Asberg Depression Rating Scale [MADRS] total score 10; escitalopram nonremitters: MADRS score >10) to enhance between-treatment balance. Treatment with LDX was initiated at 20 mg/d. The dose was increased weekly, first to 30 mg/d and then to 50 mg/d, during the dose-optimization period. Investigators could increase the dose through week 10 and decrease the dose (only once per participant) at any time; the LDX dose at week 11 was maintained through study endpoint (week 14/final study visit). […]

[3] = system: major depressive disorder (MDD); settings: augmentation of standard antidepressant treatment; cited from earlier work
[4] = Visit 13 (week 14) / study endpoint
[5] = adjunctive therapy with escitalopram
[6] = double-blind augmentation phase, n = 88
[7] = escitalopram nonremitters, study endpoint

SMILES: C[C@@H](Cc1ccccc1)NC(=O)[C@@H](N)CCCCN [LDX, N-[(1S)-1-methyl-2-phenylethyl]-L-lysinamide]
- adverse effects beyond those previously seen ([1]; LDX with escitalopram): No significant adverse effects were seen that went beyond those previously seen with escitalopram and LDX
- increases in blood pressure and pulse rate ([1]; LDX with escitalopram): generally were small and consistent with product labeling
- BMI, mean (SD) change from augmentation baseline ([1]; Visit 13 (week 14)): −0.4 (0.70) kg/m^2
- ECG HR, mean (SD) change from augmentation baseline ([1]; Visit 13 (week 14)): 4.8 (8.64) bpm
- ECG QTcF, mean (SD) change from augmentation baseline ([1]; Visit 13 (week 14)): −4.9 (11.84) ms
- Weight, mean (SD) change from augmentation baseline ([1]; Visit 13 (week 14)): −1.2 (2.00) kg
- DBP, mean (SD) change from augmentation baseline [1, 4]: 0.9 (6.61) mmHg
- Pulse, mean (SD) change from augmentation baseline [1, 4]: 3.3 (8.45) bpm
- SBP, mean (SD) change from augmentation baseline [1, 4]: 2.3 (9.04) mmHg
- ECG and clinical laboratory changes [1, 5]: No clinically significant mean changes
- most commonly reported adverse events [1, 5]: dry mouth, headache, decreased appetite, and insomnia
- ECG and clinical laboratory changes ([1]; adjunctive therapy with escitalopram, listed as VYVANSE): No notable ECG changes or changes in clinical laboratory assessments
- TEAE: Decreased appetite [1, 6]: 6 (6.8) n (%)
- TEAE: Dry mouth [1, 6]: 10 (11.4) n (%)
- TEAE: Headache [1, 6]: 10 (11.4) n (%)
- TEAE: Insomnia [1, 6]: 4 (4.5) n (%)
- TEAE: Nasopharyngitis [1, 6]: 5 (5.7) n (%)
- Any TEAE ([1]; double-blind augmentation phase, randomized safety analysis set (n = 88)): 53 (60.2) n (%)
- abnormal hepatic enzymes (TEAE) ([1]; double-blind treatment): 1.1%
- decreased weight (TEAE) ([1]; double-blind treatment): 2.3%
- nonpsychiatric TEAEs of special interest ([1]; double-blind treatment): 9.1%
- psychiatric TEAE categorized as psychosis/mania, suicidal, or aggression ([1]; double-blind treatment): no participant
- psychiatric TEAE: abnormal dreams ([1]; double-blind treatment): 1.1%
- psychiatric TEAE: anxiety ([1]; double-blind treatment): 3.4%
- psychiatric TEAE: feeling jittery ([1]; double-blind treatment): 2.3%
- psychiatric TEAE: irritability ([1]; double-blind treatment): 3.4%
- psychiatric TEAE: somnolence, number of participants ([1]; double-blind treatment): 0
- psychiatric TEAEs of special interest ([1]; double-blind treatment): 18.2%
- vital-sign related TEAEs ([1]; double-blind treatment): 5.7%
- suicidal behavior ([1]; during augmentation treatment): No participants exhibited suicidal behavior
- patients remaining in BMI category at study endpoint ([1]; normal (18.5 to <25.0) at augmentation baseline): 81.8%
- patients remaining in BMI category at study endpoint ([1]; obese (30) at augmentation baseline): 82.5%
- patients remaining in BMI category at study endpoint ([1]; overweight (25.0 to <30.0) at augmentation baseline): 76.9%
- participants reporting at least 1 TEAE ([1]; randomized augmentation phase): 60.2%
- participants reporting mild TEAEs ([1]; randomized augmentation phase): 18.2%
- participants reporting moderate TEAEs ([1]; randomized augmentation phase): 30.7%
- participants reporting severe TEAEs ([1]; randomized augmentation phase): 11.4%
- study discontinuation due to TEAEs, number of participants ([1]; randomized augmentation phase): 2
- incidence of decreased appetite ([1]; randomized treatment): 6.8%
- incidence of dry mouth ([1]; randomized treatment): 11.4%
- incidence of headache ([1]; randomized treatment): 11.4%
- incidence of insomnia ([1]; randomized treatment): 4.5%
- incidence of nasopharyngitis ([1]; randomized treatment): 5.7%
- C-SSRS affirmative response (wished dead / not wake up), number of participants ([1]; week 9): 1
- C-SSRS affirmative response (wished dead / not wake up), number of participants ([1]; week 10): 2
- C-SSRS affirmative response (wished dead / not wake up), number of participants ([1]; week 14): 1
- improvement compared to placebo on the mean total MADRS ([2]; 'per protocol' analysis of non-remitting subjects, after 6 weeks, adjunctive to escitalopram 20 mg/day): −2.2
- HAM-D17 50% decrease at week 14 ([2]; all randomized participants): 62 (70.5) n (%)
- HAM-D17 total score ≦10 at week 14 ([2]; all randomized participants): 37 (42.0) n (%)
- MADRS 50% decrease at week 14 ([2]; all randomized participants): 64 (72.7) n (%)
- MADRS total score ≦10 at week 14 ([2]; all randomized participants): 52 (59.1) n (%)
- QIDS-SR change in total score, LS mean change (90% CI) ([2]; all randomized participants (n = 85)): −2.5 (−3.1, −1.8)
- HAM-D17 change in total score, LS mean change (90% CI) ([2]; all randomized participants): −3.9 (−5.0, −2.9)
- MADRS change in total score, LS mean change (90% CI) ([2]; all randomized participants, week 8 to week 14): −4.8 (−6.3, −3.4)
- MADRS items related to appetite, sleep, or thoughts of self-harm ([2]; analysis of MADRS items): no significant worsening
- MADRS items showing improvement ([2]; analysis of MADRS items, all p≦0.08): improvement present in domains of mood, concentration, interest, and motivation
- adjusted effect size of MADRS total scores for LDX vs placebo ([2]; at endpoint): −0.3
- HAM-D17 50% decrease at week 14 ([2]; escitalopram nonremitters): 41 (63.1) n (%)
- HAM-D17 total score ≦10 at week 14 ([2]; escitalopram nonremitters): 21 (32.3) n (%)
- MADRS 50% decrease at week 14 ([2]; escitalopram nonremitters): 43 (66.2) n (%)
- MADRS total score ≦10 at week 14 ([2]; escitalopram nonremitters): 32 (49.2) n (%)
- MDD symptoms vs placebo, clinician-assessed and patient self-reported measures ([2]; escitalopram nonremitters): improved MDD symptoms vs placebo
- QIDS-SR change in total score, LS mean change (90% CI) ([2]; escitalopram nonremitters (n = 63)): −2.4 (−3.1, −1.6)
- proportion achieving MADRS remission (total score ≦10) [2, 7]: 49.2%
- proportion achieving a 25% decrease in MADRS total score [2, 7]: 89.2%
- proportion of participants with a 50% decrease in MADRS total score [2, 7]: 66.2%
- HAM-D17 change in total score, LS mean change (90% CI) ([2]; escitalopram nonremitters): −4.9 (−6.0, −3.9)
- self-assessed MDD symptoms ([2]; escitalopram remitters): improved self-assessed MDD symptoms
- primary or secondary efficacy outcome measures, LDX vs placebo ([2]; escitalopram remitters, augmentation baseline and study endpoint): no significant differences; also recorded: no treatment differences
- all MADRS outcomes, LDX versus placebo ([2]; full analysis set (FAS)): numerically greater improvement
- endpoint LS mean difference between Vyvanse and placebo, total MADRS ([2]; subjects with total MADRS score >10 and <50% improvement in total MADRS score, adjunctive to escitalopram): −3.9
- LS mean (90% CI) change in QIDS-SR total scores at week 14 ([2]; table footnote, printed as escitalopram nonremitters (P = .0852)): For escitalopram nonremitters, LS mean (90% CI) change in QIDS-SR total scores at week 14 were −1.9 (−2.9, −0.9) and −0.4 (−1.4, −0.5) for those taking LDX and placebo, respectively (P = .0852)
- CGI-S: proportion of patients with a response ranging from no illness to mild illness ([2]; week 14): However, CGI-S scores at week 14 showed a numerically greater proporation of patients had a response ranging from no illness, to mild illness, with LDX (88.9%) vs placebo (61.3%)

SMILES: O=C1CCc2ccc(OCCCCN3CCN(c4cccc(Cl)c4Cl)CC3)cc2N1 [aripiprazole]
- effect size for MADRS total scores vs placebo [3]: 0.35
